Results taken from ChEMBL document CHEMBL5113503, “Synthesis and biological evaluation of 4-(4-aminophenyl)-6-methylisoxazolo[3,4-b] pyridin-3-amine covalent inhibitors as potential agents for the treatment of acute myeloid leukemia” (Bioorg Med Chem, 2022).
pIC50: −log10 of the molar value.

Experiments:
HL-60 = experiment: Antiproliferative activity against human HL-60 cells harboring wildtype FLT3 assessed as cell growth inhibition measured after 72 hrs by CCK8 assay; conditions: HL-60, 72 h
A549 = experiment: Antiproliferative activity human A549 cells assessed as cell growth inhibition measured after 72 hrs by CCK8 assay; conditions: A549, 72 h
[1] = Cytotoxicity against HUVEC cells assessed as cell growth inhibition measured after 72 hrs by CCK8 assay; type: toxicity, cell-based; conditions: human
[2] = Cytotoxicity against human K562 cells assessed as cell growth inhibition measured after 72 hrs by CCK8 assay; type: toxicity, cell-based
MV4-11 [3] = experiment: Induction of cell cycle arrest in human MV4-11 cells assessed as accumulation at G0/G1 phase at 2.5 uM measured after 24 hrs by flow cytometry (reference value: 64.29 %); type: functional
MV4-11 [4] = experiment: Induction of apoptosis in human MV4-11 cells assessed as late apoptotic cells at 2.5 uM measured after 48 hrs by Annexin V-FITC/PI double staining based flow cytometric analysis (reference value: 12.03 %); type: functional
MV4-11 [5] = experiment: Induction of apoptosis in human MV4-11 cells assessed as necrotic cells at 2.5 uM measured after 48 hrs by Annexin V-FITC/PI double staining based flow cytometric analysis (reference value: 5.67 %); type: functional
MV4-11 [6] = experiment: Induction of apoptosis in human MV4-11 cells assessed as viable cells at 0.5 uM measured after 48 hrs by Annexin V-FITC/PI double staining based flow cytometric analysis (reference value: 80.26 %); type: functional; conditions: read-out: Activity
MV4-11 [7] = experiment: Induction of apoptosis in human MV4-11 cells assessed as necrotic cells at 0.5 uM measured after 48 hrs by Annexin V-FITC/PI double staining based flow cytometric analysis (reference value: 5.67 %); type: functional
MV4-11 [8] = experiment: Induction of apoptosis in human MV4-11 cells assessed as viable cells at 0.1 uM measured after 48 hrs by Annexin V-FITC/PI double staining based flow cytometric analysis (reference value: 80.26 %); type: functional; conditions: read-out: Activity
[9] = molecular target: Receptor-type tyrosine-protein kinase FLT3 (Homo sapiens) (UniProt P36888); experiment: Inhibition of FLT3 phosphorylation in human MV4-11 cells incubated for 12 hrs by Western blot analysis; type: cell-based; conditions: dose 0.1-2.5 µM, DDE = dose-dependent effect
Chain of Receptor-type tyrosine-protein kinase FLT3 (Homo sapiens) (P36888 whole entry): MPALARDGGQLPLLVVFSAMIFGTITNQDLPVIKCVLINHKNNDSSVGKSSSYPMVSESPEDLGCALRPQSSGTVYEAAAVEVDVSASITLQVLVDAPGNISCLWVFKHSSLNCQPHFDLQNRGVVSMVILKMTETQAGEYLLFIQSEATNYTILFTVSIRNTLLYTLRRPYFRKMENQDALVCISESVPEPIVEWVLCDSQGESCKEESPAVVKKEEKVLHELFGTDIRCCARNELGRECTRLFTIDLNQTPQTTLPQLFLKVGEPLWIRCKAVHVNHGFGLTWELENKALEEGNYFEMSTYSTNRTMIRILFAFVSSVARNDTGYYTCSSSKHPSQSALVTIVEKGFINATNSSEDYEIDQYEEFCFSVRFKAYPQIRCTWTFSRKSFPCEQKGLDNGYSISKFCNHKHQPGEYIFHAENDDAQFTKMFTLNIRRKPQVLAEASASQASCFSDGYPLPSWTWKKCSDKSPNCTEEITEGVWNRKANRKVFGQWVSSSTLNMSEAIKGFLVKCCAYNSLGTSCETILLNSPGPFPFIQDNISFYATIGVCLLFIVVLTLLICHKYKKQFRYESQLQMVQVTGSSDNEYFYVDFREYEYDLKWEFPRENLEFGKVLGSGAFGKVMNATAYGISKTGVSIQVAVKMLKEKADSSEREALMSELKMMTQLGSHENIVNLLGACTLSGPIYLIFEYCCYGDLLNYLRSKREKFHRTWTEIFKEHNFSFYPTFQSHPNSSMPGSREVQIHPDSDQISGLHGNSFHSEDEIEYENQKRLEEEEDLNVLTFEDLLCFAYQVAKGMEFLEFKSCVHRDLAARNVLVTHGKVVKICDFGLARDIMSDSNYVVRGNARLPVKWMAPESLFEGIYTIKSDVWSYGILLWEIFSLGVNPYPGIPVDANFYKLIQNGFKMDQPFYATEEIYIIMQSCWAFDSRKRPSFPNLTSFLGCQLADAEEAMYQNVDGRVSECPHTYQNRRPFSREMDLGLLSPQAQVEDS

MV4-11 [10] = experiment: Inhibition of ERK phosphorylation in human MV4-11 cells incubated for 12 hrs by Western blot analysis; type: cell-based; conditions: dose 0.1-2.5 µM, DDE = dose-dependent effect

Work on `C=CC(=O)Nc1ccc(NC(=O)Nc2ccc(-c3cc(C)nc4noc(N)c34)cc2)cc1` yielded a pIC50 (HL-60) of under 5.00, a pIC50 (A549) of under 5.00 and an IC50 at 72 h [1] of over 10 µM. The IC50 at 72 h [2] was over 10 µM, the Activity (MV4-11 [3]) was 83% and the Activity (MV4-11 [4]) was 35.01%. The Activity (MV4-11 [5]) was 9.56%, the viability at 0.5 µM (MV4-11 [6]) was 77.5% and the Activity (MV4-11 [7]) was 5.47%. The viability at 0.1 µM (MV4-11 [8]) was 81.8%, the inhibition [9] was “Dde” and the inhibition (MV4-11 [10]) was “Dde”.
